In paper PMC3281083, “Impact of the Herbal Medicine Sophora flavescens on the Oral Pharmacokinetics of Indinavir in Rats: The Involvement of CYP3A and P-Glycoprotein” (PLoS ONE, 2012):
Where two headings read alike, the source gives them in different places.

How the values were obtained:
[1] = Multiple-dose oral pharmacokinetics of indinavir (plasma) with co-administered Sophora preparations; assay type: in vivo, Male Wistar rats; details: male, Wistar, rat, 40 mg/kg; for AUC(0-inf) / CL/F / Cmax / Tmax: po; for AUC(0-inf): read-out: AUC0-∞ of indinavir
Procedure: Thirty rats were randomly designated as vehicle control, low-dose and high-dose Sophora treatment groups (ten rats in each group). A separate experiment was performed using eighteen rats designated as vehicle control, oxymatrine capsule and Sophora EA fraction groups (six rats in each group). […] Indinavir from […]® capsule (Merck & CO. Inc., Whitehouse Station, NJ, USA) was dissolved in 50 mM citric acid, and the oxymatrine capsule contents were dissolved in distilled water. […] The treatments were given twice a day (9 a.m. and 7 p.m.) for 7 consecutive days. The dosages were designed on the basis of clinical doses in human. The daily dose of S. flavescens recommended by the Chinese Pharmacopoeia is 4.5-9 g of raw herb per day. […] Taking the low and high ends of these dose ranges, and using a conversion based on the body-surface-area ratio between rats and human, an animal dose range of 0.45-1.8 g/kg/day (raw herb equivalent) was estimated for experimental rats. […] Plasma was obtained by centrifugation at 7,000× g for 15 min at 4°C and frozen at -80°C prior to analysis. […] Organ tissues, including liver and intestine, were isolated, rinsed with saline, blotted dried, snap-frozen in liquid nitrogen, and stored at -80°C until use. […] Midazolam was used as the internal standard. […] The residues were reconstituted with 200 μL of methanol-water (v/v, 1∶1) solution. The faeces were homogenized in about 4-fold volume of distilled water. The homogenates were extracted with equal volume of acetonitrile. After centrifugation, 1 mL of the supernatant was transferred to a glass tube, and was subsequently subjected to addition of midazolam, alkalization, extraction with ethyl acetate, drying and reconstitution. All reconstituted samples (60 μL) were separated on a Prevail C18 column (250 mm×4.6 mm […]) by an Agilent 1100 HPLC system (Agilent Technologies, Santa Clara, CA, USA). The flow rate was 0.8 mL/min. […] The effluent was introduced to APCI-MS (Agilent 1100 series LC/MSD Trap SL system, Santa Clara, CA, USA) with positive detection mode. […] Extract ion chromatograms at m/z 614 (indinavir) and m/z 326 (midazolam) were used for quantification (Figure S1). Quantification of indinavir was performed on six levels of standards in blank plasma or faeces homogenate. […] The recovery of the analyte ranged from 80% to 90%. […] The area under the plasma concentration-time curves from zero to infinity (AUC0-∞) was calculated by the trapezoidal rules. Clearance (CL) was calculated by the equation (F×Dose)/AUC0-∞, where F is the fraction of dose available in the systemic circulation. Peak plasma concentration (Cmax) and the time when it occurred (T max) were derived directly from the curves. Statistical differences were determined by unpaired Student's t test or one-way analysis of variance (one-way ANOVA) followed by Dunnett's post test. All tests were two-tailed and the significance was set at P<0.05.

[2] = design: method as in PMID 15771225; details: low solubility/high permeability/extensive metabolism; cited from earlier work
[3] = design: method as in PMID 10604964, PMID 10497146; details: rats; cited from earlier work
[4] = indinavir 40 mg/kg orally, multiple dosage, with EA fraction 0.164 g/kg/day, mean ± S.E.M.
[5] = indinavir 40 mg/kg orally, multiple dosage, with Oxymatrine (capsule) 90 mg/kg/day, mean ± S.E.M.
[6] = indinavir 40 mg/kg orally, multiple dosage, with Sophora extract 0.316 g/kg/day, mean ± S.E.M.
[7] = indinavir 40 mg/kg orally, multiple dosage, with Sophora extract 1.26 g/kg/day, mean ± S.E.M.
[8] = indinavir 40 mg/kg orally, multiple dosage, with vehicle control, mean ± S.E.M.

C0 ([1]; oral, day 8, before last indinavir dose, detectable, below limit of quantification, read-out: Plasma indinavir concentration at time zero): < 50 ng/mL
AUC(0-inf) ([1]; indinavir 40 mg/kg orally twice a day for 7 days, last dose day 8, with vehicle control (1.5% Tween 80), mean ± S.E.M.): 16100 ± 990 ng·h/mL
CL/F [1, 4]: 57.6 mL/min/kg
Cmax [1, 4]: 8410 ± 860 ng/mL
AUC(0-inf) [1, 4]: 12300 ± 1310 ng·h/mL
Tmax ([1]; indinavir 40 mg/kg orally, multiple dosage, with EA fraction 0.164 g/kg/day, mean ± S.E.M., read-out: T max of indinavir): 40.2 ± 9 min
CL/F [1, 5]: 159 mL/min/kg
Cmax [1, 5]: 4970 ± 810 ng/mL
AUC(0-inf) [1, 5]: 5290 ± 1110 ng·h/mL
Tmax ([1]; indinavir 40 mg/kg orally, multiple dosage, with Oxymatrine (capsule) 90 mg/kg/day, mean ± S.E.M., read-out: T max of indinavir): 25.2 ± 7.2 min
CL/F [1, 6]: 101 mL/min/kg
Cmax [1, 6]: 7170 ± 690 ng/mL
AUC(0-inf) [1, 6]: 7230 ± 870 ng·h/mL
Tmax ([1]; indinavir 40 mg/kg orally, multiple dosage, with Sophora extract 0.316 g/kg/day, mean ± S.E.M., read-out: T max of indinavir): 37.2 ± 7.2 min
CL/F [1, 7]: 316 mL/min/kg
Cmax [1, 7]: 3090 ± 1080 ng/mL
AUC(0-inf) [1, 7]: 2780 ± 610 ng·h/mL
Tmax ([1]; indinavir 40 mg/kg orally, multiple dosage, with Sophora extract 1.26 g/kg/day, mean ± S.E.M., read-out: T max of indinavir): 30 ± 11.4 min
CL/F [1, 8]: 42.8 mL/min/kg
Cmax [1, 8]: 11500 ± 670 ng/mL
Tmax ([1]; indinavir 40 mg/kg orally, multiple dosage, with vehicle control, mean ± S.E.M., read-out: T max of indinavir): 30 ± 6 min
Tmax ([1]; oral, read-out: T max of indinavir determined in our study): 30 to 37 min
SMILES: CC(C)(C)NC(=O)[C@@H]1CN(Cc2cccnc2)CCN1C[C@@H](O)C[C@@H](Cc1ccccc1)C(=O)N[C@H]1c2ccccc2C[C@H]1O [indinavir]
Metabolic (drug disposition) class [2]: Class 2
Oral bioavailability [3]: 26%
